Measurements from patent US7750169B2 (Biocodex, priority 2008, dated 2010).

Test: particle size distribution measured under wet conditions (Malvern Mastersizer 2000 SM)
Format: physicochemical
Settings: stiripentol particles of Example 1 after double recrystallization from toluene
Method: This particle size distribution is measured under wet conditions.

CC(C)(C)C(O)/C=C/c1ccc2c(c1)OCO2 (stereo not shown) [stiripentol, 4-dimethyl-1-[(3,4-methylenedioxy)-phenyl]-1-penten-3-ol]
Diameter of 90% of the particles (d90): ≤ 250 μm
